Measured values taken from patent publication US20240274226A1, “MOLECULAR EVALUATION METHODS” (UNIVERSITY COLLEGE DUBLIN, priority 2021, published 2024).
Values joined by “and” are separate entries in the source; they are usually repeats but may differ in a detail not shown here. Equal entries are not always repeated.

B1: BDNF: TrkB ligand, growth factor (protein, UniProt P23560 19-247, looked up)
Neurotrophic factor BDNF …: APMKEANIRGQGGLAYPGVRTHGTLESVNGPKAGSRGLTSLADTFEHVIEELLDEDQKVRPNEENNKDADLYTSRVMLSSQVPLEPPLLFLLEEYKNYLDAANMSMRVRRHSDPARRGELSVCDSISEWVTAADKKTAVDMSGGTVTVLEKVPVSKGQLKQYFYETKCNPMGYTKEGCRGIDKRHWNSQCRTTQSYVRALTMDSKKRIGWRFIRIDTSCVCTLTIKRGR

What was measured:
SH-SY5Y-TrkB [1] = assay: Differentiation of TrkB cells, live cell images at 72 hours; type: cell-based, human; settings: for Experimentally measured percentage of differentiated cells: SH-SY5Y-TrkB, ligand BDNF; for Experiment (biological outcome): SY5Y-TrkB ± BDNF
Procedure: FIG. 45 is a live cell image of TrkB cells stimulated with BDNF taken at 72 hours. FIG. 46 is a live cell image of BDNF-stimulated TrkB cells treated with 0.2 μM Trametinib taken at 72 hours. FIG. 47 is a live cell image of BDNF-stimulated TrkB cells treated with 2.5 μM Gefitinib taken at 72 hours. […] FIG. 49 is an additional experiment, being a live cell image of BDNF-stimulated TrkB cells treated with a combination of 2.5 μM Gefitinib and 0.05 μM Trametinib taken at 72 hours.

SH-SY5Y-TrkA [2] = assay: cSTAR analysis of RPPA perturbation data (STV dot product P, DPD output S), TrkA cells; type: cell-based, human; settings: ligand NGF, 45 minutes, calculated from RPPA data
Source text: (§1) Thus, we use this dimensionality reduced STV for estimating the network effects and biological outcomes of experimental perturbations. For each perturbation we determine a perturbation vector that connects the centroids of the point clouds that have been obtained before and after the perturbation. This vector changes the cell phenotype when it pushes the centroid of the original point cloud across the plane that separates different cell states, stabilizes a cell state when moving the centroid away from the separation plane, or has no effect when it is (nearly) parallel to the separation plane.
(§2) These outcomes can be quantified by determining the dot product (P) of the perturbation vector and the dimensionality reduced STV.
(§3) For a correct interpretation of perturbation data using the STV, we have to exclude the analytes that composed the modules of our core signaling network. Accordingly, the dimensionality of the molecular dataspace where the STV and perturbation vectors are calculated is reduced from 115 to 70, due to 45 analytes from Table S1A, related to the five proteins flagged in Table S3, being allocated to core network components, leaving the remaining 70 analytes to defined the reduced dimensionality dataspace.
(§4) Let A with the radius-vector {right arrow over (x)}A be the centroid of the point cloud Ai, corresponding to the unperturbed state 1. Let Apert with the radius-vector {right arrow over (x)}Apert be the centroid of the point cloud (Ai^pert), corresponding to the perturbed state 1. Then the perturbation vector is defined as,
(§5) The projection P of the perturbation vector {right arrow over (P)} on the STV ({right arrow over (s)}) is obtained as a dot product of these two vectors,
(§6) In the molecular dataspace, we consider the STV as a vector {right arrow over (s)} of unit length directed from a centroid of a differentiation TrkA point cloud to a centroid of a proliferation TrkB point cloud. We now define the output of the DPD module as the S value,
(§7) In this definition, the direction of the vector {right arrow over (n)}, which is orthogonal to the separation hyperplane, […]. Then, the DPD value (S) is positive for proliferation TrkB points and negative for differentiation TrkA points.
(§8) Using the STV ({right arrow over (s)}), a perturbation vector ({right arrow over (P)}) and the unit length vector ({right arrow over (n)}) orthogonal to the separation hyperplane, we can calculate how the DPD value changes following each inhibitor perturbation. The DPD values, determined for the centroids of unperturbed (A) and perturbed (Apert) states, S and Spert, respectively, are the following (see Eq. 9),
(§9) In order to reconstruct the posterior network, we used the drug perturbations described in Table 1, measuring 10 and 45 minute timepoints in TrkA and TrkB cells stimulated with NGF or BDNF, respectively.

SH-SY5Y-TrkB [3] = assay: cSTAR analysis of RPPA perturbation data (STV dot product P, DPD output S), TrkB cells; type: cell-based, human; settings: for Change in the DPD output ΔS / DPD output S: SH-SY5Y-TrkB, ligand BDNF, 45 minutes, calculated from RPPA data
Source text: as §1, §2
TrkB cells were treated with the p90RSK inhibitor BI-D1870. Data points were acquired corresponding to 45 min 100 ng/ml GF stimulation, and these were projected into the first 3 principal components in order to calculate the point cloud centroids. For clarity, only the centroids are shown in FIG. 7, corresponding to: TrkA 45 minute NGF, TrkB 45 minute BDNF before perturbation, and the perturbed centroid TrkB RSKi 45 minute BDNF.
as §3, §4, §5, §6, §7, §8, §9

SH-SY5Y-TrkA [4] = assay: Differentiation of TrkA cells, live cell images at 72 hours; settings: for Experimentally measured percentage of differentiated cells: SH-SY5Y-TrkA, ligand NGF; for Experiment (biological outcome): SY5Y-TrkA ± NGF
Procedure: SH-SY5Y cells stably expressing TrkA or TrkB receptors were stimulated with 100 ng/ml NGF or BDNF, respectively. Differentiation and proliferation were assessed 72 hours after growth factor treatment.
In FIGS. 35A-F, the live cell images are accompanied by bar plots showing the percentage of differentiated cells. The percentages were obtained by examining three images for each set of conditions, and counting the total number of cells and the number of differentiated cells.
FIG. 52 is a bar plot showing the percentage of differentiated cells for different treatments, measured by counting cells in images and calculating the ratio of differentiated cells to total cells.

phospho-Trk [5] = assay: Phospho-Trk activity by Western blotting, TrkA cells; type: cell-based, human; settings: single replicates
Procedure: (§10) These antibodies detect phosphorylation sites that change protein activities or protein abundances. We measured pathway activities in untreated cells and cells treated with NGF (TrkA ligand) or BDNF (TrkB ligand) for 10 or 45 minutes. After normalization we calculated the fold changes in protein phosphorylation levels or abundances producing a data point for each protein.

phospho-Trk [6] = assay: Phospho-Trk activity by Western blotting, TrkB cells; type: cell-based, human; settings: single replicates
Procedure: as §10

TrkA cells = assay: RPPA phosphoproteomics (raw fluorescent intensity) in TrkA cells stimulated with ligand and treated with inhibitors; type: cell-based, human
Source text: (§11) Experiments used a custom made RPPA with 115 validated antibodies listed in Table S1A below to interrogate the activities of signaling pathways involved in TrkA/B signaling (Schramm et al., 2005), including MAPK (RAS-ERK, JNK, p38), PI3 kinase (AKT, mTORC1/2), JAK-STAT, PLCγ-PKC, TGFβ-SMAD, Wnt, cyclic-AMP, cell cycle (CDK1, Cyclins, Rb, p53, p21^WAF), apoptosis (BAX, BCL2, BCLx, Caspase 3), transcription factor (MYC, NFκB, JUN), and tyrosine kinase (SRC, EGFR, PDGFR, IGFR) pathways. In addition to the 115 antibodies, three controls are also included, Mouse 1, 2 and 3.
(§12) For each antibody, RPPA phosphoproteomics data was collected, measured as raw fluorescent intensity values in TrkA and TrkB cells stimulated with a ligand and treated with different inhibitors. A sample of the data is reproduced in Table S1B below, showing the measured fluorescent intensity values for a small sample of antibodies and a small sample of treatment and stimulation conditions. The full data set, including replicated experiments, contains 118 rows (one per antibody) and 144 columns (each containing 118 measurements and relating to an experimental set of treatment and stimulation conditions, which include replicated experiments).
(§13) In terms of the computational approach to processing the acquired data, each analyte level was first normalized on the GAPDH level, and then on the value of the same analyte in the absence of inhibitors and ligand stimulation to obtain fold-changes.
(§14) FIGS. 25-30 show the simulated time courses with the experimental data points (dots with error bars) imposed on the model predictions (curves) for a number of inhibitors: S6K inhibitor (1 μM) FIG. 25A-F; TRK inhibitor (5 μM) FIG. 26A-F; MEK inhibitor (0.5 μM) FIG. 27 A-F; AKT inhibitor (1 μM) FIG. 28A-F; JNK inhibitor (1 μM) FIG. 29A-F; and RSK inhibitor (1 μM) FIG. 30A-F. The TrkA and TrkB cells were treated with the respective inhibitor, and stimulated with 100 ng/ml NGF and BDNF, respectively. Dashed lines are the time courses in the absence of inhibitor. Error bars represent SEM and are calculated using 3 biological replicates.

TrkB cells = assay: RPPA phosphoproteomics (raw fluorescent intensity) in TrkB cells stimulated with ligand and treated with inhibitors; type: cell-based, human; settings: No GF stimulation
Source text: as §11, §12, §13, §14

Row | Molecule | Experimentally measured percentage of differentiated cells (SH-SY5Y-TrkB [1]; 72 hours) | Change in the DPD output ΔS (SH-SY5Y-TrkA [2]) | DPD output S (SH-SY5Y-TrkA [2]) | Change in the DPD output ΔS (SH-SY5Y-TrkB [3]) | DPD output S (SH-SY5Y-TrkB [3]) | Experimentally measured percentage of differentiated cells (SH-SY5Y-TrkA [4]; 72 hours) | Experiment (biological outcome) (SH-SY5Y-TrkA [4]) | further results
1 | Cc1cc(NC(=O)c2cccc(NC(=O)/C=C/CN(C)C)c2)ccc1Nc1nccc(-c2cccnc2)n1 [JNK inhibitor, JNK-IN-8] | 25% ± 4% | −0.07 ± 0.75 | −2.4 ± 0.7 | 0.23 ± 0.82 | 5.95 ± 0.56 | 45% ± 5% | No effect | Experiment (biological outcome) (SH-SY5Y-TrkB [1]): No effect
2 | Oc1c2ccccc2c2c3c(cccc13)N=N2 [Trk inhibitor, SP600125] | 55% ± 4% | −2.53 ± 0.35 | −4.84 ± 0.16 | −9.6 ± 0.6 | −3.84 ± 0.03 | 64.4% ± 2.5% | – | phospho-Trk (phospho-Trk [5]; 10 min ligand stimulation): 0.8871 and 0.6065; phospho-Trk (phospho-Trk [5]; 45 min ligand stimulation): 0.724; phospho-Trk (phospho-Trk [6]; 10 min ligand stimulation): 3.716 and 1.408; phospho-Trk (phospho-Trk [6]; 45 min ligand stimulation): 3.539
3 | CC(=O)Nc1cccc(-n2c(=O)n(C3CC3)c(=O)c3c(Nc4ccc(I)cc4F)n(C)c(=O)c(C)c32)c1 [MEK inhibitor, Trametinib] | 20% ± 1% | −0.7 ± 0.4 | −3.0 ± 0.3 | 0.35 ± 0.72 | 6.1 ± 0.4 | 48% ± 3% | No effect | Bad P Ser112 raw fluorescent intensity (RPPA) (TrkA cells; 45 min NGF stimulation): 0.2853; Bad P Ser136 raw fluorescent intensity (RPPA) (TrkA cells; 45 min NGF stimulation): 0.07024; Bak raw fluorescent intensity (RPPA) (TrkA cells; 45 min NGF stimulation): 0.0709; CrkL P Tyr207 raw fluorescent intensity (RPPA) (TrkA cells; 45 min NGF stimulation): 0.1174; HSP27 (HSPB1) P Ser78 raw fluorescent intensity (RPPA) (TrkA cells; 45 min NGF stimulation): 0.04349; JAK1 raw fluorescent intensity (RPPA) (TrkA cells; 45 min NGF stimulation): 0.0516
4 | NGF: TrkA ligand, growth factor | – | – | – | – | – | – | – | cell fate after growth factor treatment (SH-SY5Y-TrkA [4]; TrkA cells, 100 ng/ml, 72 hours): differentiation
5 | CC[n+]1c(/C=C/N(C)c2ccccc2)n(-c2ccccc2)c2ccc(-c3nc4ccccc4s3)cc21.[I-] [AKT inhibitor, AKT inhibitor IV] | 34.3% ± 0.8% | −1.3 ± 0.6 | −3.6 ± 0.5 | −1.5 ± 1.0 | 4.3 ± 0.8 | 62% ± 3% | – | –
6 | CC(C)CCN1c2nc(Nc3cc(F)c(O)c(F)c3)ncc2N(C)C(=O)C1C (stereo not shown) [p90RSK inhibitor, BI-D1870] | 29% ± 4% | 1.8 ± 0.3 | −0.54 ± 0.13 | −1.7 ± 0.6 | 4.0 ± 0.2 | 37.0% ± 2.4% | decreasing differentiation | Experiment (biological outcome) (SH-SY5Y-TrkB [1]): weakly increasing differentiation; Perturbation vector component collinear with the STV (SH-SY5Y-TrkB [3]; TrkB cells, 45 min 100 ng/ml GF stimulation): moves the proliferation state towards differentiation; Bad P Ser112 raw fluorescent intensity (RPPA) (TrkB cells): 0.103; Bad P Ser136 raw fluorescent intensity (RPPA) (TrkB cells): 0.07225; Bak raw fluorescent intensity (RPPA) (TrkB cells): 0.1888; CrkL P Tyr207 raw fluorescent intensity (RPPA) (TrkB cells): 0.2852; HSP27 (HSPB1) P Ser78 raw fluorescent intensity (RPPA) (TrkB cells): 0.3221; JAK1 raw fluorescent intensity (RPPA) (TrkB cells): 0.1064
7 | COc1cc2ncnc(Nc3ccc(F)c(Cl)c3)c2cc1OCCCN1CCOCC1 [Gefitinib] | – | – | – | – | – | – | – | differentiation of TrkB cells (live cell images) (SH-SY5Y-TrkB [1]; BDNF-stimulated, 72 hours, combination 1.25 μM Gefitinib + 0.1 μM Trametinib or 2.5 μM + 0.05 μM, alone 2.5 μM Gefitinib, 0.2 μM Trametinib): not with either inhibitor applied separately
8 | Cn1cc(-c2ccc(F)c(C(F)(F)F)c2)nc1C1CCN(c2ncnc3[nH]ncc23)CC1 [p70S6K inhibitor, LY2584702] | 45% ± 3% | −1.5 ± 0.4 | −3.8 ± 0.3 | −7.8 ± 0.6 | −2.10 ± 0.05 | 41% ± 5% | – | Bad P Ser112 raw fluorescent intensity (RPPA) (TrkA cells; 10 min NGF stimulation): 0.1181; Bad P Ser136 raw fluorescent intensity (RPPA) (TrkA cells; 10 min NGF stimulation): 0.109; Bak raw fluorescent intensity (RPPA) (TrkA cells; 10 min NGF stimulation): 0.211; CrkL P Tyr207 raw fluorescent intensity (RPPA) (TrkA cells; 10 min NGF stimulation): 0.2814; HSP27 (HSPB1) P Ser78 raw fluorescent intensity (RPPA) (TrkA cells; 10 min NGF stimulation): 0.2939; JAK1 raw fluorescent intensity (RPPA) (TrkA cells; 10 min NGF stimulation): 0.1005
9 | B1 | – | – | – | – | – | – | – | cell fate after growth factor treatment (SH-SY5Y-TrkB [1]; TrkB cells, 100 ng/ml, 72 hours): proliferation
